One experiment concerns the target Ephrin type-A receptor 2 (Homo sapiens, UniProt P29317). Description: Inhibition of recombinant human N-terminal His6-tagged EphA2 (N598 to R890 residues) expressed in baculovirus using poly-EY as substrate after 180 mins by luciferase coupled chemiluminescence assay.
The target of the next experiment is T1, Ephrin type-B receptor 4 (Homo sapiens, UniProt P54760).
T1 sequence (P54760 whole entry): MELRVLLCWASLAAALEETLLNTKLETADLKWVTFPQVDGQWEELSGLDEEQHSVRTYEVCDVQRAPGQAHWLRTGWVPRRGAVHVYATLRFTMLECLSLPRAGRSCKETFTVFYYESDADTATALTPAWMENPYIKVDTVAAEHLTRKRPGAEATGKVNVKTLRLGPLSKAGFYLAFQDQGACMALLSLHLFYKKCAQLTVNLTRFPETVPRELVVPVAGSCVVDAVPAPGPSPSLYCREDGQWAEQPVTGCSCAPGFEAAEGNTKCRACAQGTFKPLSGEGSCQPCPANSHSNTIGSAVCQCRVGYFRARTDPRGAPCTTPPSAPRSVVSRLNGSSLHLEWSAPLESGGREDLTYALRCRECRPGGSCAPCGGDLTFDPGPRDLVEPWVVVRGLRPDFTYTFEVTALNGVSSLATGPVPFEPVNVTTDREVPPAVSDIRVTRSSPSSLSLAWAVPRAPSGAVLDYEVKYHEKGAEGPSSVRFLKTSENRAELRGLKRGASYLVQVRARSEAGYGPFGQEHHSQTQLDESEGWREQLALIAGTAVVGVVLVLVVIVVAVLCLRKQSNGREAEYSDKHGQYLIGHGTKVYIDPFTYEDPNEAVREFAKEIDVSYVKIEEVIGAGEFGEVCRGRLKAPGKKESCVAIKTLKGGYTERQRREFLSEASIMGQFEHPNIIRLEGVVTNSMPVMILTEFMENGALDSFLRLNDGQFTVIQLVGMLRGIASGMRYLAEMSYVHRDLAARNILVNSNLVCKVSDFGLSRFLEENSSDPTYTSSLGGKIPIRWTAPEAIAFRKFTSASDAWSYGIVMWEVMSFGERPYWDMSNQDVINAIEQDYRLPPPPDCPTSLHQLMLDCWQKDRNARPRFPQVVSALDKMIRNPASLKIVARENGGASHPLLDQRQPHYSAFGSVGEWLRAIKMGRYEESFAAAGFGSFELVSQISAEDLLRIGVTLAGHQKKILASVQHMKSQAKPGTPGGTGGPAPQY
Briefly: Inhibition of recombinant human N-terminal His6-tagged EphB4 kinase domain (E605 to E890 residues) expressed in baculovirus using poly-AEKY as substrate after 150 mins in presence of gamma33P-ATP by liquid scintillation spectrometry.

Experiment [1] concerns the target Vascular endothelial growth factor receptor 2 (Homo sapiens, UniProt P35968). Briefly: Inhibition of recombinant human N-terminal GST-fused KDR (D807 to V1356 residues) expressed in baculovirus infected […] insect Sf9 cells using poly-EY as substrate after 240 mins by luciferase coupled chemiluminescence assay.

Consider 45 molecules from ChEMBL document CHEMBL3882729, “Receptor-type kinase modulators and methods of use” (2009).

pIC50: −log10 of the molar value.

Sequence of Vascular endothelial growth factor receptor 2 (P35968 whole entry, the tested form may be a part): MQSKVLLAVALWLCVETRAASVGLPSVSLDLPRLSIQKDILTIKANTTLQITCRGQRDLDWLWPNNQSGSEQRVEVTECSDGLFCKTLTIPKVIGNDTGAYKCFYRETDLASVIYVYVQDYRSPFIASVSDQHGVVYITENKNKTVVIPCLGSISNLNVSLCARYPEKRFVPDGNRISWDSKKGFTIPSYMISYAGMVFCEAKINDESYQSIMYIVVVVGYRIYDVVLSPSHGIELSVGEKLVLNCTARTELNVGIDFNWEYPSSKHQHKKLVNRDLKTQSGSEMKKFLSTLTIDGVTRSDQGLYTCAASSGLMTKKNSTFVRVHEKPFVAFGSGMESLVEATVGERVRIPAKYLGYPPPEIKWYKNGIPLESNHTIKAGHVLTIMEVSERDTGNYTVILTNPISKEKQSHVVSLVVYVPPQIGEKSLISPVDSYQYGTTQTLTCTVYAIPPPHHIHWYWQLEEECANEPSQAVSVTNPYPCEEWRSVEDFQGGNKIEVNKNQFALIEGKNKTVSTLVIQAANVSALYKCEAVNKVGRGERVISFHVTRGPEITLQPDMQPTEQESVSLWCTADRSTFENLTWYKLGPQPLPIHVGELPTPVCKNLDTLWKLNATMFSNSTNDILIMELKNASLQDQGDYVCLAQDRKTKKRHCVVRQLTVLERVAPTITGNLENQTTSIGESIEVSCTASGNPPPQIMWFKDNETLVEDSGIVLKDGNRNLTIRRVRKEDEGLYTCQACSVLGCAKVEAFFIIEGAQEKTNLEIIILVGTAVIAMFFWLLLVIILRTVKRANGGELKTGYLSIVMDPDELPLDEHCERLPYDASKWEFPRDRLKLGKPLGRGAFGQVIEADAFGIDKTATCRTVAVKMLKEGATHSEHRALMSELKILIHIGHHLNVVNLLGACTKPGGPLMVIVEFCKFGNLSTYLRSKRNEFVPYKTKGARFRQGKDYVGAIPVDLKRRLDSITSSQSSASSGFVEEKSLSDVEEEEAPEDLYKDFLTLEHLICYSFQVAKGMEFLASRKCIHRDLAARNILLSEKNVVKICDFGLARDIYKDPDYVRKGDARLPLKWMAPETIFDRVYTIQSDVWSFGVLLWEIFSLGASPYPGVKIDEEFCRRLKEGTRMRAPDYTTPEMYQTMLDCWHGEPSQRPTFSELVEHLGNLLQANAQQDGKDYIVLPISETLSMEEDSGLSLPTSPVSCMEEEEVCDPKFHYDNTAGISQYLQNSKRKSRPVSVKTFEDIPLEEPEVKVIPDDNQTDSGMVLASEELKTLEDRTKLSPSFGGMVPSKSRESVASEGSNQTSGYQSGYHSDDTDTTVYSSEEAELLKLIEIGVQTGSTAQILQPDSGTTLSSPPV
Sequence of Ephrin type-A receptor 2 (P29317 whole entry, the tested form may be a part): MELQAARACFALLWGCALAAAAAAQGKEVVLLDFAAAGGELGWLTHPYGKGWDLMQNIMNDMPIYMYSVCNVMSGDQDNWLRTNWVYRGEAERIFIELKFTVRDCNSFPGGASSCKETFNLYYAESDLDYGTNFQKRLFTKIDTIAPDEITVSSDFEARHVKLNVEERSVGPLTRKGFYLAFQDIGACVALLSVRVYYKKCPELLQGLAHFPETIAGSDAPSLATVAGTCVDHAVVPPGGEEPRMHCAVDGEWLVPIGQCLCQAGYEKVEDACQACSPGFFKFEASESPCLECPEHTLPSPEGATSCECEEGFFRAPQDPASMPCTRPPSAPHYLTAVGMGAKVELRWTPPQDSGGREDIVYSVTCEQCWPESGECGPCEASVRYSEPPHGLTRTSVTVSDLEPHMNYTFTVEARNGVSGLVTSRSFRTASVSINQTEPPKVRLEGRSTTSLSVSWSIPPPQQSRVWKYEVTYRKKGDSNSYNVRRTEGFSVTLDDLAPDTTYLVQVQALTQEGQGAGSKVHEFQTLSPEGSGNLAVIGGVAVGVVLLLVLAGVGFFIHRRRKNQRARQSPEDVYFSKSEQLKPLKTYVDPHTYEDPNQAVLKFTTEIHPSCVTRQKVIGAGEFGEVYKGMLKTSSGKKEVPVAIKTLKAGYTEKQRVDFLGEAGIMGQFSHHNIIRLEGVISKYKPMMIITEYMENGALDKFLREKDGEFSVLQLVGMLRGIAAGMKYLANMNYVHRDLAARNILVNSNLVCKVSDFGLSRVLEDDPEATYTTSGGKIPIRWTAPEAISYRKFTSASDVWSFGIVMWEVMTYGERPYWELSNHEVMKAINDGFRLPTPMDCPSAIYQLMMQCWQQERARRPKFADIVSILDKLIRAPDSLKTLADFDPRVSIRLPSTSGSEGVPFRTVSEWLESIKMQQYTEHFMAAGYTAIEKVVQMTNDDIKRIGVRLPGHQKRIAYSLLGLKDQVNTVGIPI

As to `CCN1CCN(C(C)=O)CC1COc1cc2ncnc(Nc3ccc(Cl)c(Cl)c3)c2cc1OC` (stereo unspecified), the pIC50 (usually the IC50 on a negative log10 scale, so that one unit is a factor of ten) is 6.00 to 7.30 on Ephrin type-A receptor 2, more than 7.30 at Ephrin type-B receptor 4 and 4.70 to 6.00 in experiment [1].
Regarding `COc1cc2c(Nc3ccc(N4CCN(C)CC4)c(F)c3)ncnc2cc1O[C@H]1CO[C@H]2[C@@H]1OC[C@@H]2F`, the pIC50 (on Ephrin type-B receptor 4; in experiment [1]) was 4.70 to 6.00 throughout.
Regarding `COc1cc2c(Nc3ccc(F)c(Cl)c3)ncnc2cc1OCC1CN(C)CCO1` (stereo unspecified), the pIC50 (on Ephrin type-A receptor 2; on Ephrin type-B receptor 4; in experiment [1]) was 6.00 to 7.30 throughout.
Regarding `COc1cc2c(Nc3ccc(Cl)c(Cl)c3)ncnc2cc1OCC1CN(CCO)CCO1` (stereo unspecified), the pIC50 (at Ephrin type-A receptor 2; at Ephrin type-B receptor 4; in experiment [1]) was 6.00 to 7.30 throughout.
Turning to `COc1cc2c(Nc3ccc(Cl)c(Cl)c3)ncnc2cc1OCC1CN(CC2CCCCC2)CCO1` (stereo unspecified), the negative-log IC50 (pIC50) (at Ephrin type-A receptor 2; on Ephrin type-B receptor 4; in experiment [1]) was 6.00 to 7.30 throughout.
As for `COc1cc2c(Nc3cccc(Cl)c3C)ncnc2cc1OCC1CN(C)CCO1` (stereo unspecified), the pIC50 on Ephrin type-A receptor 2 was more than 7.30; on Ephrin type-B receptor 4 it was more than 7.30; in experiment [1], 6.00 to 7.30.
As for `COc1cc2c(Nc3ccc(Cl)c(Cl)c3)ncnc2cc1OCC1CN(CC2CC2)CCO1` (stereo unspecified), the pIC50 (on Ephrin type-A receptor 2; at Ephrin type-B receptor 4; in experiment [1]) was more than 7.30 each time.
With `COc1cc2c(Nc3ccc(Cl)c(Cl)c3)ncnc2cc1OCC1CN(CCCC#N)CCO1` (stereo unspecified), the pIC50 (at Ephrin type-A receptor 2; on Ephrin type-B receptor 4; in experiment [1]) was more than 7.30 in each case.
As for `COc1cc2c(Nc3ccc(Cl)c(Cl)c3)ncnc2cc1OCc1csc(CN2CCCC2)n1`, the pIC50 (on Ephrin type-A receptor 2; on Ephrin type-B receptor 4; in experiment [1]) was 6.00 to 7.30 in each case.
In the case of `COc1cc2c(Nc3ccc(Cl)c(Cl)c3)ncnc2cc1OCc1nc(CS(=O)(=O)c2ccccn2)no1`, the pIC50 (on Ephrin type-A receptor 2; at Ephrin type-B receptor 4; in experiment [1]) was 6.00 to 7.30 each time.
For `COc1cc2c(Nc3ccc(Cl)cc3Cl)ncnc2cc1OCC1CN(C)CCO1` (stereo unspecified), the pIC50 (on Ephrin type-A receptor 2; at Ephrin type-B receptor 4; in experiment [1]) was 6.00 to 7.30 each time.
In the case of `COc1cc2c(Nc3ccc(Cl)c(Cl)c3)ncnc2cc1OCC1CN(Cc2ccc(F)cc2)CCO1` (stereo unspecified), the pIC50 (on Ephrin type-A receptor 2; at Ephrin type-B receptor 4; in experiment [1]) was 6.00 to 7.30 throughout.
`COc1cc2c(Nc3cccc(Br)c3C)ncnc2cc1OCC1CN(C)CCO1` (stereo unspecified): the pIC50 (at Ephrin type-A receptor 2; at Ephrin type-B receptor 4; in experiment [1]) was 6.00 to 7.30 each time.
With `COc1cc2c(Nc3ccc(Br)cc3Br)ncnc2cc1OCC1CN(C)CCO1` (stereo unspecified), the pIC50 (on Ephrin type-A receptor 2; on Ephrin type-B receptor 4; in experiment [1]) was 6.00 to 7.30 in each case.
Turning to `COc1cc2c(Nc3ccc(Cl)c(Cl)c3)ncnc2cc1OCC1CN(Cc2ccccn2)CCO1` (stereo unspecified), the pIC50 on Ephrin type-A receptor 2 is 6.00 to 7.30; on Ephrin type-B receptor 4, 6.00 to 7.30; in experiment [1] it was more than 7.30.
Regarding `CCC#CCN1CCOC(COc2cc3ncnc(Nc4ccc(Cl)c(Cl)c4)c3cc2OC)C1` (stereo unspecified), the pIC50 (at Ephrin type-A receptor 2; on Ephrin type-B receptor 4; in experiment [1]) was 6.00 to 7.30 in each case.
Turning to `CCC(CC)CN1CCOC(COc2cc3ncnc(Nc4ccc(Cl)c(Cl)c4)c3cc2OC)C1` (stereo unspecified), the negative logarithm of the IC50 (pIC50) (at Ephrin type-A receptor 2; at Ephrin type-B receptor 4; in experiment [1]) was 6.00 to 7.30 each time.
On to `COc1cc2c(Nc3ccc(Cl)c(Cl)c3)ncnc2cc1OCC1CN(CC2CCCCO2)CCO1` (stereo unspecified), for which the pIC50 (at Ephrin type-B receptor 4; in experiment [1]) was more than 7.30 each time.
Take `COc1cc2c(Nc3ccc(Cl)c(Cl)c3)ncnc2cc1OCC1CN(C2CCOCC2)CCO1` (stereo unspecified): the pIC50 was 6.00 to 7.30 at Ephrin type-A receptor 2, more than 7.30 at Ephrin type-B receptor 4 and 6.00 to 7.30 in experiment [1].
`COc1cc2c(Nc3ccc(Cl)c(Cl)c3)ncnc2cc1OCC1CN(C2CCC2)CCO1` (stereo unspecified): the results for the negative-log IC50 (pIC50) (at Ephrin type-A receptor 2; at Ephrin type-B receptor 4; in experiment [1]) were 6.00 to 7.30, 6.00 to 7.30 and more than 7.30, respectively.
`C#CCN1CCOC(COc2cc3ncnc(Nc4ccc(Cl)c(Cl)c4)c3cc2OC)C1` (stereo unspecified): the pIC50 (at Ephrin type-A receptor 2; at Ephrin type-B receptor 4; in experiment [1]) was more than 7.30 each time.
For the molecule `CC#CCN1CCOC(COc2cc3ncnc(Nc4ccc(Cl)c(Cl)c4)c3cc2OC)C1` (stereo unspecified), the negative logarithm of the IC50 (pIC50) (on Ephrin type-A receptor 2; at Ephrin type-B receptor 4; in experiment [1]) was 6.00 to 7.30 in each case.
Turning to `COc1cc2c(Nc3ccc(Cl)c(Cl)c3)ncnc2cc1OCC1CN(c2ccncc2)CCO1` (stereo unspecified), the pIC50 (at Ephrin type-A receptor 2; at Ephrin type-B receptor 4; in experiment [1]) was more than 7.30 each time.
On to `CCCN1CCOC(COc2cc3ncnc(Nc4ccc(Cl)c(Cl)c4)c3cc2OC)C1` (stereo unspecified), for which the pIC50 at Ephrin type-A receptor 2 was 6.00 to 7.30; at Ephrin type-B receptor 4, more than 7.30; in experiment [1] it was 6.00 to 7.30.
Consider `COc1cc(Nc2ncnc3cc(OCC4CN(C)CCO4)c(OC)cc23)c(OC)cc1Cl` (stereo unspecified), for which the pIC50 at Ephrin type-A receptor 2 was 6.00 to 7.30; at Ephrin type-B receptor 4 it was 6.00 to 7.30; in experiment [1] it was 4.70 to 6.00.
With `C=CCCCN1CCOC(COc2cc3ncnc(Nc4ccc(Cl)c(Cl)c4)c3cc2OC)C1` (stereo unspecified), the pIC50 on Ephrin type-A receptor 2 is 6.00 to 7.30; on Ephrin type-B receptor 4 it was more than 7.30; in experiment [1], more than 7.30.
On to `COc1cc2c(Nc3cc(Cl)ccc3F)ncnc2cc1OCC1CN(C)CCO1` (stereo unspecified), for which the pIC50 (on Ephrin type-A receptor 2; on Ephrin type-B receptor 4; in experiment [1]) was 6.00 to 7.30 each time.
On to `COc1cc2c(Nc3ccc(Cl)c(Cl)c3)ncnc2cc1OCC1CN(CCCCCCO)CCO1` (stereo unspecified), for which the pIC50 was 6.00 to 7.30 at Ephrin type-A receptor 2, more than 7.30 on Ephrin type-B receptor 4 and more than 7.30 in experiment [1].
For the molecule `COc1cc2c(Nc3ccc(Cl)c(Cl)c3)ncnc2cc1OCC1CN(CCC2CCCCC2)CCO1` (stereo unspecified), the pIC50 (at Ephrin type-A receptor 2; at Ephrin type-B receptor 4; in experiment [1]) was 6.00 to 7.30 in each case.
For `COc1cc2c(Nc3ccc(Cl)cc3F)ncnc2cc1OCC1CN(C)CCO1` (stereo unspecified), the values for the pIC50 (at Ephrin type-A receptor 2; at Ephrin type-B receptor 4; in experiment [1]) were 6.00 to 7.30, 6.00 to 7.30 and more than 7.30, respectively.
On to `COc1cc2c(Nc3ccc(Cl)c(Cl)c3)ncnc2cc1OCc1cc(F)cc2c1OCOC2`, for which the pIC50 (at Ephrin type-A receptor 2; on Ephrin type-B receptor 4; in experiment [1]) was 4.70 to 6.00 throughout.
On to `COc1cc2c(Nc3ccc(Cl)c(Cl)c3)ncnc2cc1OCc1noc(C2CCCN2C)n1` (stereo unspecified), for which the pIC50 (at Ephrin type-A receptor 2; on Ephrin type-B receptor 4; in experiment [1]) was 6.00 to 7.30 each time.
Regarding `COCCOc1cc2c(Nc3ccc(Cl)c(Cl)c3)ncnc2cc1OCC1CNCCO1` (stereo unspecified), the pIC50 (at Ephrin type-B receptor 4; in experiment [1]) was more than 7.30 each time.
For `COc1cc2c(Nc3ccc(Br)cc3F)ncnc2cc1OCC1CN(C)CCO1` (stereo unspecified), the results for the pIC50 (at Ephrin type-A receptor 2; on Ephrin type-B receptor 4; in experiment [1]) were 6.00 to 7.30, 6.00 to 7.30 and more than 7.30, respectively.
Regarding `CCN1CCN(C)CC1COc1cc2ncnc(Nc3ccc(Cl)c(Cl)c3)c2cc1OC` (stereo unspecified), the pIC50 is 6.00 to 7.30 on Ephrin type-A receptor 2, 6.00 to 7.30 at Ephrin type-B receptor 4 and 4.70 to 6.00 in experiment [1].
For the molecule `COc1cc2c(Nc3ccc(Cl)c(Cl)c3)ncnc2cc1OCc1csc(CN(C)C)n1`, the pIC50 at Ephrin type-B receptor 4 was 6.00 to 7.30.
Same read-out and setting: then `COc1cc2c(Nc3ccc(Cl)c(Cl)c3)ncnc2cc1OCc1csc(CN2CCN(C)CC2)n1`, with more than 7.30; and `COc1cc2c(Nc3ccc(Cl)c(Cl)c3)ncnc2cc1OCc1csc(CN2CCOCC2)n1`, with 6.00 to 7.30; and `COc1cc2c(Nc3ccc(Cl)c(Cl)c3)ncnc2cc1OCC1CCCCO1` (stereo unspecified), with more than 7.30.
As for `COC(=O)CCCCN1CCOC(COc2cc3ncnc(Nc4ccc(Cl)c(Cl)c4)c3cc2OC)C1` (stereo unspecified), the negative-log IC50 (pIC50) (at Ephrin type-A receptor 2; on Ephrin type-B receptor 4; in experiment [1]) was 6.00 to 7.30 in each case.
Turning to `COc1cc2c(Nc3ccc(Cl)c(Cl)c3)ncnc2cc1OCC1CN(CCC2OCCO2)CCO1` (stereo unspecified), the pIC50 at Ephrin type-A receptor 2 was 6.00 to 7.30; on Ephrin type-B receptor 4 it was more than 7.30; in experiment [1], 6.00 to 7.30.
`C=CCCCCCCN1CCOC(COc2cc3ncnc(Nc4ccc(Cl)c(Cl)c4)c3cc2OC)C1` (stereo unspecified): the pIC50 (on Ephrin type-A receptor 2; at Ephrin type-B receptor 4; in experiment [1]) was 6.00 to 7.30 throughout.
As to `COc1cc2c(Nc3ccc(Cl)c(Cl)c3)ncnc2cc1OCC1CN(C(C)=O)CCO1` (stereo unspecified), the results for the pIC50 (on Ephrin type-A receptor 2; at Ephrin type-B receptor 4; in experiment [1]) were 6.00 to 7.30, more than 7.30 and 6.00 to 7.30, respectively.
On to `COc1ccc(-c2nc(COc3cc4ncnc(Nc5ccc(Cl)c(Cl)c5)c4cc3OC)no2)cc1`, for which the pIC50 on Ephrin type-A receptor 2 is 4.70 to 6.00.
Take `COc1cc2c(Nc3ccc(Cl)c(Cl)c3)ncnc2cc1OC[C@@H]1O[C@@H](OC)[C@@H](O)[C@H](O)[C@H]1O` (single isomer, unassigned): the pIC50 at Ephrin type-A receptor 2 is 6.00 to 7.30; at Ephrin type-B receptor 4, more than 7.30.
